Assay results: PubChem BioAssay (NCI)
Several values for one entry are separate records, joined by “and”; a condition that tells them apart may be missing. Equal values may be shown once.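 These data come from cells grown in 96-well plates and exposed to compound for 48 hours at five concentrations. At the GI50, growth is halved. At the TGI there is no net growth.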

Assays:
Assay in all cases: NCI tumour cell line growth inhibition, 48 h
OVCAR-5 ovarian = tested on: OVCAR-5 ovarian
M14 melanoma = tested on: M14 melanoma
U251 CNS = tested on: U251 CNS
DMS 273 small cell lung = tested on: DMS 273 small cell lung
M19-MEL melanoma = tested on: M19-MEL melanoma
KM20L2 colon = tested on: KM20L2 colon
DLD-1 colon = tested on: DLD-1 colon
LXFL 529 NSCLC = tested on: LXFL 529 NSCLC
XF 498 CNS = tested on: XF 498 CNS
SNB-78 CNS = tested on: SNB-78 CNS
DMS 114 small cell lung = tested on: DMS 114 small cell lung

With `Cc1ccc(S(=O)(=O)N/N=C2/C3CC4CCC2C4C3)cc1` (centres undefined) the TGI (OVCAR-5 ovarian) was greater than 100 µM, the TGI (M14 melanoma) was greater than 100 µM and the TGI (U251 CNS) was greater than 100 µM.

Molecule `C[C@@H](Br)[C@@H]1CC[C@H]2c3[nH]c4ccccc4c3CCN2C1` has a TGI (OVCAR-5 ovarian) greater than 100 µM, a TGI (M14 melanoma) of 44 µM and a TGI (U251 CNS) of 55.8 µM.

With `COc1ccc(OC)c2c1-c1nnnn1CCC2(C)C` the TGI (OVCAR-5 ovarian) was greater than 100 µM, the TGI (M14 melanoma) was greater than 100 µM and the TGI (U251 CNS) was greater than 100 µM.

`CC(C)[Si](CC1=CCCCC12C(=O)N(COCC[Si](C)(C)C)c1ccccc12)(C(C)C)C(C)C` (centres undefined) showed a TGI (OVCAR-5 ovarian) of 80.9 µM, a TGI (M14 melanoma) greater than 100 µM and a TGI (U251 CNS) greater than 100 µM.

For `c1ccc2c[n+](Cc3ccnc4ccccc34)ccc2c1`, the TGI (OVCAR-5 ovarian) was greater than 100 µM, the TGI (M14 melanoma) was greater than 100 µM and the TGI (U251 CNS) was greater than 100 µM.

Molecule `CC(=O)Nc1ccc2cc3c(nc2n1)c1cccnc1n3S(=O)(=O)c1ccccc1` has a TGI (OVCAR-5 ovarian) greater than 100 µM, a TGI (M14 melanoma) greater than 100 µM and a TGI (U251 CNS) greater than 100 µM.

`Oc1ccccc1/C=N/N1C(=S)N(c2ccccc2)C(=Nc2ccccc2)C1=Nc1ccccc1` showed a TGI (OVCAR-5 ovarian) greater than 52.4 µM, a TGI (M14 melanoma) of 28.7 µM and a TGI (U251 CNS) of 14.2 µM.

For `O=C1CSC2(CC(/C=C/c3ccccc3[N+](=O)[O-])=NN2c2cccc(S(=O)(=O)O)c2)N1c1nc2ccccc2s1` (centres undefined), the TGI (OVCAR-5 ovarian) was 39.9 µM, the TGI (M14 melanoma) was 60.7 µM and the TGI (U251 CNS) was 33.6 µM.

`CCOC1=NC(C(F)(F)F)(C(F)(F)F)N=C(/N=C(/N)N(C)C(C(C)C)P(=O)(OC(C)C)OC(C)C)O1` (centres undefined) gave a TGI (OVCAR-5 ovarian) greater than 100 µM, a TGI (M14 melanoma) greater than 100 µM and a TGI (U251 CNS) greater than 100 µM.

`ClC1(Cl)C2CCOC21n1cnc2ccccc21` (centres undefined) was tested, and the TGI (OVCAR-5 ovarian) was greater than 100 µM, the TGI (M14 melanoma) was greater than 100 µM and the TGI (U251 CNS) was greater than 100 µM.

`CN=C(NC#N)NCc1ccccc1` showed a TGI (DMS 273 small cell lung) greater than 100 µM, a TGI (M19-MEL melanoma) greater than 100 µM and a TGI (OVCAR-5 ovarian) greater than 100 µM. The TGI (KM20L2 colon) was greater than 100 µM, the TGI (M14 melanoma) was greater than 100 µM and the TGI (DLD-1 colon) was greater than 100 µM. The TGI (LXFL 529 NSCLC) was greater than 100 µM, the TGI (XF 498 CNS) was greater than 100 µM and the TGI (SNB-78 CNS) was greater than 100 µM. The TGI (U251 CNS) was greater than 100 µM and the TGI (DMS 114 small cell lung) was greater than 100 µM.

Molecule `COC(=O)CC(c1ccccc1)C(C#N)(OP1(=O)OC(c2ccccc2)C(C)N1C)c1ccccc1` (centres undefined) has a TGI (OVCAR-5 ovarian) greater than 100 µM, a TGI (M14 melanoma) greater than 100 µM and a TGI (U251 CNS) greater than 100 µM.

Molecule `NC(=O)NC(=O)c1cccc(C(=O)NC(N)=O)n1` has a TGI (OVCAR-5 ovarian) greater than 100 µM, a TGI (M14 melanoma) greater than 100 µM and a TGI (U251 CNS) greater than 100 µM.

`O=C1CCCC1C(O)(C(F)(F)Cl)C(F)(F)Cl` (centres undefined) was tested, and the TGI (OVCAR-5 ovarian) was greater than 10 µM, the TGI (M14 melanoma) was greater than 10 µM and the TGI (U251 CNS) was greater than 10 µM.

Work on `Cc1cccc2c1CC1(Cc3c(C)cccc3C1=O)C2=O` yielded a TGI (OVCAR-5 ovarian) greater than 100 µM, a TGI (M14 melanoma) greater than 100 µM and a TGI (U251 CNS) greater than 100 µM.

Work on `COc1cc(CNC(=O)CCCCCCCCCCSC#N)ccc1O` yielded a TGI (OVCAR-5 ovarian) of 85.8 µM, a TGI (M14 melanoma) of 21.5 µM and a TGI (U251 CNS) of 34.1 µM.

For `O=C(CCCN1CCC(Nc2ccc(F)cc2)(c2nnnn2C2CCCCC2)CC1)c1ccc(F)cc1`, the TGI (OVCAR-5 ovarian) was 29.7 µM, the TGI (M14 melanoma) was 32.4 µM and the TGI (U251 CNS) was 29.2 µM.

For `O=c1ccc2c(Cl)sc(Cl)c2[nH]1`, the TGI (OVCAR-5 ovarian) was greater than 100 µM, the TGI (M14 melanoma) was greater than 100 µM and the TGI (U251 CNS) was greater than 100 µM.

`COc1cc(C2C(Cl)C(=O)N2NC(=O)c2ccccc2O)cc(OC)c1OC` (centres undefined) gave a TGI (OVCAR-5 ovarian) greater than 10 µM, a TGI (M14 melanoma) greater than 10 µM and a TGI (U251 CNS) greater than 10 µM.

`COc1ccc(-c2nc3ccccc3c(=O)[nH]2)cc1OC` was tested, and the TGI (OVCAR-5 ovarian) was greater than 100 µM, the TGI (M14 melanoma) was greater than 100 µM and the TGI (U251 CNS) was 80.5 µM.

`COc1cc2oc(=O)cc(C)c2c(OC)c1OC` was tested, and the TGI (OVCAR-5 ovarian) was greater than 100 µM, the TGI (M14 melanoma) was greater than 100 µM and the TGI (U251 CNS) was greater than 100 µM.

With `CCCCCC(=O)OC[n+]1ccc(-c2c(COC(=O)NC(C)C)c(COC(=O)NC(C)C)c3n2CCC3)cc1` the TGI (OVCAR-5 ovarian) was greater than 100 µM, the TGI (M14 melanoma) was greater than 100 µM and the TGI (U251 CNS) was greater than 100 µM.

In the case of `COc1ccccc1N1C(=O)/C(=C\c2ccccc2)SC1c1cc(OC)c(OC)c(OC)c1` (centres undefined), the TGI (OVCAR-5 ovarian) is reported as greater than 100 µM, the TGI (M14 melanoma) is reported as greater than 100 µM and the TGI (U251 CNS) is reported as 74.2 µM.

With `COc1ccc([C@H]2C=C(c3cc(F)c(Cl)cc3Cl)N=c3s/c(=C\c4ccc(-c5ccc(Cl)cc5Cl)o4)c(=O)n32)cc1` the TGI (OVCAR-5 ovarian) was greater than 100 µM, the TGI (M14 melanoma) was greater than 100 µM and the TGI (U251 CNS) was greater than 100 µM.

`COC(=O)/C=C/c1cc(OC)c2c(c1)C(C(=O)OC)C(c1ccc(O)c(OC)c1)O2` (centres undefined) was tested, and the GI50 (OVCAR-5 ovarian) was 48.8 µM and 55.2 µM and 22.3 µM, the TGI (OVCAR-5 ovarian) was greater than 100 µM and the TGI (M14 melanoma) was greater than 100 µM. The TGI (U251 CNS) was > 45 µM and > 54.2 µM and 48.3 µM.
